Results on 13 compounds are retold here after PMC6272637, “Hepatoprotective Triterpene Saponins from the Roots of Glycyrrhiza inflata” (Molecules, 2015).

The target of one test is phospholipase A2 (PLA2). Briefly: Assay for inhibition against PLA2. It counts as biochemical. Particulars: PLA2 enzyme 5 μg/mL, pH 8.2, 40 °C, 30 min, OD 495 nm; three repeats. On the procedure: As a regulator associated with the stability of the liver cell membrane, phospholipase A2 (PLA2) is a promising target for hepatoprotective drug development.
The PLA2 inhibitory assays of compounds 1–11 and the positive drug diethylenetriaminepentaacetic acid (Purchased from Aladdin, Los Angeles, CA, USA, purity > 98.0%) were carried out according to the literature. First of all, each tube was added with 1 mL fresh substrate buffer solution (pH = 8.2). After that, 50 μL tested compounds at various concentrations were placed at reaction tube and blank tube, respectively. As for control tube, 50 μL deionized water was instead. Then each tube incubated at 40 °C for 10 minutes. The reaction tube and blank tube were followed by the treatment with PLA2 enzyme (5 μL) at the concentration of 5 μg/mL. Before put them into the incubator at the temperature of 40 °C to react 30 minutes, the content of the tube should be fully blending. The optical density value of each tube was then read in an ELISA plate reader using a wavelength of 495 nm. The IC50 values were calculated from concentration-response curves by means of the GraphPad Prism 5.0 Software (San Diego, CA, USA). Each experiment was repeated three times to get the mean values.

Test [1] deals with primary rat hepatocytes injured by D-GalN. As to the kind of experiment: Hepatoprotective activity in primary rat hepatocytes injured by D-GalN (AST, LDH levels). Format: cell-based. The note with it: for AST / LDH: primary rat hepatocytes, 2 mM D-GalN, mean ± SD, n = 3; for AST: model 17.1 ± 2.4, control 6.9 ± 1.7; for LDH: model 253.5 ± 13.5, control 157.4 ± 11.7; for hepatoprotective activity (result in words): primary rat hepatocytes injured by D-GalN, compared to model group or between compounds. How it is done:
All the separated compounds were assessed for their hepatoprotective activities against the increase of AST and LDH levels in primary rat hepatocytes injured by D-GalN. The maximum nontoxic concentrations of tested compounds on primary rat hepatocytes were in the range of 120–240 μM. […] (Table 2).
Isolated rat hepatocytes were prepared from male Wistar rats by a collagenase perfusion technique as described previously. The D-GalN concentration used for cell culture treatment was previously determined according to a modification of the method of Morikawa et al.. The cultured cells in logarithmic growth phase were made into a single-cell suspension and seeded in 96-well plates (1 × 10^4 cells/well) in the DMEM/F 12 with 2% FBS complete medium for 24 h at 37 °C. Then, the hepatocytes were exposed to 2 mM D-GalN for 2 h to induce hepatotoxocity. The medium with silibin meglumine (as positive drug, purity 95.6%, Hunan Xieli Pharmaceutical Co., Ltd., Zhuzhou, China) and different concentrations of test compounds was mixed in cell medium (final test compounds concentration were 30 μM, 60 μM and 120 μM, respectively), and incubated for 24 h. The obtained reacted supernatant was directly used to detect ALT and AST levels. The control group was a set of cells maintained in culture medium, while the model group was a set of cells maintained in culture medium and treated only with D-GalN. All data are expressed as the mean ± SD of at least three independent experiments as indicated. The test for the paired samples was used to determine statistical difference between parameters. These differences were considered significant for p < 0.05 or 0.01.

The structures appear in SMILES notation. Entries after “also recorded” stand apart in the source; their conditions may differ. Marks after values point to notes of the source that are not given here. A value given as a limit tells only on which side of the number the result lay.

As a reminder, the IC50 is the concentration needed to halve the response being measured. On phospholipase A2 (PLA2), `CC12CCC(CO)(C(=O)O)CC1C1=CC(=O)C3C4(C)CCC(OC5OC(C(=O)O)C(O)C(O)C5OC5OC(C(=O)O)C(O)C(O)C5O)C(C)(C)C4CCC3(C)C1(C)CC2` [Compound 1, 3β-O-[β-D-glucuronopyranosyl-(1→2)-β-D-glucuronopyranosyl]-29-hydroxyglycyrrhetic acid] yielded an IC50 greater than 50 µM.

As for `CC12CCC3(C)C(=CC(=O)C4C5(C)CCC(OC6OC(C(=O)O)C(O)C(O)C6OC6OC(C(=O)O)C(O)C(O)C6O)C(C)(C)C5CCC43C)C1CC(C)(C(=O)O)C(O)C2` (stereo not drawn) [Compound 2, macedonoside A], the AST in test [1] (30 μM compound) is 14.6 ± 3.1 U·L^−1; in test [1] (60 μM compound) it was 13.1 ± 2.1 ^c U·L^−1; in test [1] (120 μM compound), 11.2 ± 1.9 ^d U·L^−1. The LDH was 231.0 ± 18.3 ^c U·L^−1 in test [1] (30 μM compound), 213.7 ± 19.6 ^d U·L^−1 in test [1] (60 μM compound) and 215.9 ± 8.2 ^d U·L^−1 in test [1] (120 μM compound). Moreover, the “hepatoprotective activity (result in words)” value (from here on “hepatoprotective activity”) in test [1] is “notably lowered AST; also recorded: significant hepatoprotective activities”. The IC50 against phospholipase A2 (PLA2) was 6.9 ± 0.5 µM.

In the case of `CC1(C(=O)O)CCC2(C)CCC3(C)C(=CC(=O)C4C5(C)CCC(OC6OC(C(=O)O)C(O)C(O)C6OC6OC(C(=O)O)C(O)C(O)C6O)C(C)(CO)C5CCC43C)C2C1` [Compound 3, 3β-O-[β-D-glucuronpyranosyl-(1→2)-β-D-glucuron-pyranosyl]-24-hydroxy-18α-glycyrrhetic acid], the AST in test [1] (30 μM compound) is 13.3 ± 2.9 ^c U·L^−1; in test [1] (60 μM compound), 12.9 ± 3.2 ^d U·L^−1; in test [1] (120 μM compound) it was 10.8 ± 2.8 ^d U·L^−1. Moreover, the LDH in test [1] (30 μM compound) is 224.6 ± 21.4 ^c U·L^−1; in test [1] (60 μM compound) it was 208.6 ± 16.0 ^d U·L^−1; in test [1] (120 μM compound), 200.7 ± 15.1 ^d U·L^−1. The “hepatoprotective activity” value in test [1] is “notably lowered AST; also recorded: higher activity than compound 4; also recorded: significant hepatoprotective activities”. In addition, the half-inhibitory concentration (IC50) at phospholipase A2 (PLA2) is 3.6 ± 0.3 µM.

Take `CC1(C(=O)O)CCC2(C)CCC3(C)C(=CC(=O)C4C5(C)CCC(OC6OC(C(=O)O)C(O)C(O)C6OC6OC(C(=O)O)C(O)C(O)C6O)C(C)(CO)C5CCC43C)C2C1` (stereo not drawn) [Compound 4, licorice-saponin G2]: the AST in test [1] (30 μM compound) was 14.8 ± 2.9 U·L^−1; in test [1] (60 μM compound) it was 13.7 ± 2.6 ^c U·L^−1; in test [1] (120 μM compound), 12.6 ± 2.8 ^c U·L^−1. The LDH in test [1] (30 μM compound) is recorded as 237.2 ± 16.4 U·L^−1; in test [1] (60 μM compound), 232.7 ± 25.7 U·L^−1; in test [1] (120 μM compound), 224.9 ± 25.2 ^c U·L^−1. The “hepatoprotective activity” value in test [1] is recorded as “notably lowered AST; also recorded: significant hepatoprotective activities”. For the same compound, the 50% inhibitory concentration (IC50) against phospholipase A2 (PLA2) was 16.9 ± 0.3 µM.

Regarding `CC12CC(OC1=O)C1(C)CCC3(C)C(=CC(=O)C4C5(C)CCC(OC6OC(C(=O)O)C(O)C(O)C6OC6OC(C(=O)O)C(O)C(O)C6O)C(C)(C)C5CCC43C)C1C2` (stereo not drawn) [Compound 5, licorice-saponin E2], the “hepatoprotective activity” value in test [1] is “significantly weaker hepatoprotective activities than the compound 2 and 11”. Also, the IC50 at phospholipase A2 (PLA2) was greater than 50 µM.

As to `CC(=O)OC1CC(C)(C(=O)O)CC2C3=CC(=O)C4C5(C)CCC(OC6OC(C(=O)O)C(O)C(O)C6OC6OC(C(=O)O)C(O)C(O)C6O)C(C)(C)C5CCC4(C)C3(C)CCC12C` (stereo not drawn) [Compound 6, 22β-acetoxyglycyrrhizin], the AST in test [1] (30 μM compound) was 16.5 ± 2.2 U·L^−1; in test [1] (60 μM compound), 14.6 ± 3.0 U·L^−1; in test [1] (120 μM compound), 13.2 ± 2.7 ^c U·L^−1. Also, the LDH in test [1] (30 μM compound) was 242.8 ± 15.2 U·L^−1; in test [1] (60 μM compound), 228.7 ± 14.0 ^c U·L^−1; in test [1] (120 μM compound) it was 221.7 ± 19.5 ^d U·L^−1. In test [1], the “hepatoprotective activity” value is recorded as “notably lowered AST; also recorded: significant hepatoprotective activities”. This compound yielded an IC50 at phospholipase A2 (PLA2) of 27.1 ± 0.9 µM.

Turning to `CC1(C)C(OC2OC(C(=O)O)C(O)C(O)C2OC2OC(C(=O)O)C(O)C(O)C2O)CCC2(C)C1CCC1(C)C2C(=O)C=C2C3CC4(C(=O)O)CC(OC4=O)C3(C)CCC21C` (stereo not drawn) [Compound 7, uralsaponin D], in test [1], the “hepatoprotective activity” value was “significantly weaker hepatoprotective activities than the compound 2 and 11”. The same compound gave a half-maximal inhibitory concentration (IC50) at phospholipase A2 (PLA2) of 32.2 ± 0.5 µM.

Consider `CC12CC(OC1=O)C1(C)CCC3(C)C(=CC(=O)C4C5(C)CCC(OC6OC(C(=O)O)C(O)C(O)C6OC6OC(C(=O)O)C(O)C(O)C6O)C(C)(CO)C5CCC43C)C1C2` (stereo not drawn) [Compound 8, 24-hydroxylicorice-saponin E2], for which, at phospholipase A2 (PLA2), the IC50 was greater than 50 µM.

On to `CC(=O)OC1CC(C)(C=O)CC2C3=CC(=O)C4C5(C)CCC(OC6OC(C(=O)O)C(O)C(O)C6OC6OC(C(=O)O)C(O)C(O)C6O)C(C)(C)C5CCC4(C)C3(C)CCC12C` (stereo not drawn) [Compound 9, 22β-acetoxyglycyrrhaldehyde], for which the IC50 against phospholipase A2 (PLA2) was greater than 50 µM.

On phospholipase A2 (PLA2), `CC1(C(=O)OC2OC(CO)C(O)C(O)C2O)CCC2(C)CCC3(C)C(=CC(=O)C4C5(C)CCC(OC6OC(C(=O)O)C(O)C(O)C6OC6OC(C(=O)O)C(O)C(O)C6O)C(C)(CO)C5CCC43C)C2C1` (stereo not drawn) [Compound 10, licorice-saponin A3] yielded an IC50 greater than 50 µM.

With `CC1(C)[C@@H](O[C@H]2O[C@H](C(=O)O)[C@@H](O)[C@H](O)[C@H]2O[C@@H]2O[C@H](C(=O)O)[C@@H](O)[C@H](O)[C@H]2O)CC[C@]2(C)[C@H]3C(=O)C=C4[C@@H]5C[C@@](C)(C(=O)O)CC[C@]5(C)CC[C@@]4(C)[C@]3(C)CC[C@@H]12` [Compound 11, glycyrrhizin], the AST is 14.1 ± 2.1 ^c U·L^−1 in test [1] (30 μM compound), 13.0 ± 2.2 ^c U·L^−1 in test [1] (60 μM compound) and 11.6 ± 1.8 ^d U·L^−1 in test [1] (120 μM compound). In addition, the LDH in test [1] (30 μM compound) was 236.3 ± 9.4 ^c U·L^−1; in test [1] (60 μM compound), 219.1 ± 19.3 ^d U·L^−1; in test [1] (120 μM compound) it was 207.8 ± 21.9 ^d U·L^−1. For the same compound, the “hepatoprotective activity” value in test [1] is “notably lowered AST; also recorded: stronger activity than 1; also recorded: significant hepatoprotective activities”. At phospholipase A2 (PLA2), this compound yielded a half-maximal inhibitory concentration (IC50) of 9.3 ± 0.8 µM.

Take `O=C(O)CN(CCN(CC(=O)O)CC(=O)O)CCN(CC(=O)O)CC(=O)O` [Diethylenetriaminepentaacetic acid, reference compound]: the midpoint of inhibition against phospholipase A2 (PLA2), the IC50, lay at 1.8 ± 0.1 µM.

For the compound `CNCC(O)C(O)C(O)C(O)CO.COc1cc(C2Oc3cc(C4Oc5cc(O)cc(O)c5C(=O)C4O)ccc3OC2CO)ccc1O` (stereo not drawn) [Silibinin Meglumine, reference compound], in test [1] (50 μM (positive drug)), the AST is 10.3 ± 2.2 ^d U·L^−1 and the LDH is recorded as 219.1 ± 10.9 ^d U·L^−1.
